Assay results from patent US20220257597A1, “Methods of Administering Elagolix” (AbbVie Inc., priority 2021, published 2022).
Like-named read-outs stand apart in the source and are kept apart here.

Columns and labels:
[1] = Drug interaction studies: change in pharmacokinetics of elagolix in the presence of co-administered drugs; type: in vivo, human; conditions: for changes in elagolix exposures when co-administered, in words: elagolix 300 mg twice daily, rosuvastatin 20 mg once daily, sertraline 25 mg once daily or fluconazole 200 mg single dose
CYP3A = experiment: Substrate of / metabolism by CYP3A; type: in vitro ADME
[2] = Drug interaction studies: change in pharmacokinetics of co-administered drug in the presence of elagolix; type: in vivo, human; conditions: for changes in exposures when co-administered with elagolix, in words: elagolix 300 mg twice daily
Method: Drug interaction studies were performed with elagolix and other drugs likely to be co-administered and with drugs commonly used as probes for pharmacokinetic interactions. Tables 8 and 9 summarize the pharmacokinetic effects when elagolix was co-administered with these drugs.

[3] = Drug interactions: effects of ORIAHNN on other drugs; conditions: co-administration of ORIAHNN
[4] = Drug interactions: effects of ORILISSA on other drugs; conditions: co-administration of ORILISSA
[5] = Phase 1 open-label study: coadministration of combined oral contraceptive (EE+LNG) with elagolix sodium, pharmacokinetics, safety and tolerability; type: in vivo, human; conditions: for AUCinf ratio, co-administered in the presence of elagolix vs alone / Cmax ratio, co-administered in the presence of elagolix vs alone: elagolix 200 mg twice daily
Method: Objective: To evaluate the effect of elagolix on the pharmacokinetics, safety, and tolerability of a single dose of a combined oral contraceptive (COC) containing EE and LNG in healthy premenopausal female subjects. […] [table] […] Diagnosis and Main Criteria for Inclusion: Subjects were premenopausal females, and age was between 18 and 49 years, inclusive. Test Product, Dose/Strength/Concentration, and Mode of Administration: […] EE/LNG 0.02 mg/0.1 mg tablet; All study drugs were administered orally. Duration of Treatment: […] EE/LNG: 0.02 mg/0.1 mg on two separate occasions. Criteria for Evaluation: Pharmacokinetic: Cmax, Tmax, t1/2 and AUC. Safety: Vital signs, physical examinations, laboratory tests, and adverse events. […] The tabulation of the number of subjects with treatment-emergent adverse events also was provided with further breakdowns by severity rating and relationship to study drug.

[6] = digoxin 0.5 mg single dose, elagolix 200 mg twice daily x 10 days, N 11
[7] = rosuvastatin 20 mg once daily, elagolix 300 mg twice daily x 7 days, N 10
[8] = COC 20 mcg EE/0.1 mg levonorgestrel
[9] = COC 20 mcg EE/0.1 mg levonorgestrel, listed as EE
[10] = Study Day 1: EE/LNG 0.02 mg/0.1 mg
[11] = ethinyl estradiol 20 mcg/levonorgestrel 0.1 mg single dose, elagolix 200 mg twice daily x 15 days, N 20
[12] = following elagolix 200 mg BID for 14 days
[13] = ethinyl estradiol 35 mcg and triphasic norgestimate 0.18/0.215/0.25 mg once daily, elagolix 150 mg once daily, N 21
[14] = midazolam 2 mg single dose, elagolix 150 mg once daily x 13 days, N 11
[15] = midazolam 2 mg single dose, elagolix 300 mg twice daily x 11 days, N 20

Compound: CO[C@H]1/C=C/O[C@@]2(C)Oc3c(C)c(O)c4c(O)c(c(/C=N/N5CCN(C)CC5)c(O)c4c3C2=O)NC(=O)/C(C)=C\C=C\[C@H](C)[C@H](O)[C@@H](C)[C@@H](O)[C@@H](C)[C@H](OC(C)=O)[C@@H]1C [Rifampin]
- effect of concomitant use on plasma concentrations of elagolix, in words ([1]; concomitant use of rifampin): increased

Compound: C#C[C@]1(OC(C)=O)CC[C@H]2[C@@H]3CCC4=CC(=O)CC[C@@H]4[C@H]3CC[C@@]21C [norethindrone acetate]
- metabolism by CYP3A (CYP3A): metabolized partially by CYP3A

Compound: C[C@H]1O[C@@H](O[C@H]2[C@@H](O)C[C@H](O[C@H]3[C@@H](O)C[C@H](O[C@H]4CC[C@@]5(C)[C@H](CC[C@@H]6[C@@H]5C[C@@H](O)[C@]5(C)[C@@H](C7=CC(=O)OC7)CC[C@]65O)C4)O[C@@H]3C)O[C@@H]2C)C[C@H](O)[C@@H]1O [digoxin]
- Ratio (90% CI) AUC, co-administration with elagolix vs medication alone [2, 6]: 1.26
- Ratio (90% CI) Cmax, co-administration with elagolix vs medication alone [2, 6]: 1.71
- Effect on Plasma Exposure of Concomitant Drug (direction of change in AUC) [3]: ↑ digoxin
- Effect on Plasma Exposure of Concomitant Drug (direction of change in AUC) [4]: ↑ digoxin

Compound: CC(C)c1nc(N(C)S(C)(=O)=O)nc(-c2ccc(F)cc2)c1/C=C/[C@@H](O)C[C@@H](O)CC(=O)O [rosuvastatin]
- changes in elagolix exposures when co-administered, in words [1]: No clinically significant changes
- Ratio (90% CI) AUC, co-administration with elagolix vs medication alone [2, 7]: 0.60
- Ratio (90% CI) Cmax, co-administration with elagolix vs medication alone [2, 7]: 0.99
- Effect on Plasma Exposure of Concomitant Drug (direction of change in AUC) [3]: ↓ rosuvastatin
- Effect on Plasma Exposure of Concomitant Drug (direction of change in AUC) [4]: ↓ rosuvastatin

Compound: C#C[C@]1(O)CC[C@H]2[C@@H]3CCc4cc(O)ccc4[C@H]3CC[C@@]21C [ethinyl estradiol, 17α-Ethynylestra-1,3,5(10)-triene-3,17β-diol]
- AUCinf ratio, co-administered in the presence of elagolix vs alone [5, 8]: 2.18
- Cmax ratio, co-administered in the presence of elagolix vs alone [5, 8]: 1.36
- increase in plasma EE concentration compared to COC alone ([5]; COC 20 mcg EE/0.1 mg levonorgestrel, elagolix 200 mg twice daily for 14 days): 2.2 fold
- AUCinf ratio, co-administered in the presence of elagolix vs alone [5, 9]: about 2.18
- Cmax ratio, co-administered in the presence of elagolix vs alone [5, 9]: about 1.36
- AUCinf, Central Value Reference [5, 10]: 0.494 ng·h/mL
- CCmax, Central Value Reference [5, 10]: 49.0 pg/mL
- CCmax, Central Value Test ([5]; Study Day 18: EE/LNG 0.02 mg/0.1 mg + elagolix 200 mg): 66.4 pg/mL
- Ratio (90% CI) AUC, co-administration with elagolix vs medication alone [5, 11]: 2.18
- Ratio (90% CI) Cmax, co-administration with elagolix vs medication alone [5, 11]: 1.36
- AUC(0-t) ([5]; female, human, in vivo, oral, Study Day 1: EE/LNG 0.02 mg/0.1 mg, read-out: AUCt, Central Value Reference): 0.437 ng·h/mL
- AUC(0-inf) ([5]; female, human, in vivo, oral, Study Day 18: EE/LNG 0.02 mg/0.1 mg + elagolix 200 mg, read-out: AUCinf, Central Value Test): 1.08 ng·h/mL
- AUC(0-t) ([5]; female, human, in vivo, oral, Study Day 18: EE/LNG 0.02 mg/0.1 mg + elagolix 200 mg, read-out: AUCt, Central Value Test): 0.941 ng·h/mL
- increase in AUCinf [5, 12]: 118%
- increase in Cmax [5, 12]: 36%
- Ratio (90% CI) AUC, co-administration with elagolix vs medication alone [2, 13]: 1.30
- Ratio (90% CI) Cmax, co-administration with elagolix vs medication alone [2, 13]: 1.15
- Effect on Plasma Exposure of Concomitant Drug (direction of change in AUC) [3]: ↑ethinyl
- Effect on Plasma Exposure of Concomitant Drug (direction of change in AUC) [4]: ↑ethinyl

Compound: Cc1ncc2n1-c1ccc(Cl)cc1C(c1ccccc1F)=NC2 [midazolam]
- Ratio (90% CI) AUC, co-administration with elagolix vs medication alone [2, 14]: 0.65
- Ratio (90% CI) Cmax, co-administration with elagolix vs medication alone [2, 14]: 0.81
- Ratio (90% CI) AUC, co-administration with elagolix vs medication alone [2, 15]: 0.46
- Ratio (90% CI) Cmax, co-administration with elagolix vs medication alone [2, 15]: 0.56
- Effect on Plasma Exposure of Concomitant Drug (direction of change in AUC) [3]: ↓ midazolam
- Effect on Plasma Exposure of Concomitant Drug (direction of change in AUC) [4]: ↓ midazolam

Compound: C[C@]12CC[C@@H]3c4ccc(O)cc4CC[C@H]3[C@@H]1CC[C@@H]2O [estradiol]
- metabolism by CYP3A (CYP3A): metabolized partially by CYP3A

Compound: OC(Cn1cncn1)(Cn1cncn1)c1ccc(F)cc1F [fluconazole]
- changes in elagolix exposures when co-administered, in words [1]: No clinically significant changes
- changes in exposures when co-administered with elagolix, in words [2]: No clinically significant changes

Compound: CN[C@H]1CC[C@@H](c2ccc(Cl)c(Cl)c2)c2ccccc21 [sertraline]
- changes in elagolix exposures when co-administered, in words [1]: No clinically significant changes
- changes in exposures when co-administered with elagolix, in words [2]: No clinically significant changes
